Results reported in article PMC11124525, “Pharmacokinetic–Pharmacodynamic Correlation Analysis of Rhodiola crenulata in Rats with Myocardial Ischemia” (Pharmaceuticals, 2024).
“Also recorded” adds a separate entry of the source. Where two headings read alike, the source gives them in different places.

How the values were obtained:
[1] = myocardial infarction induced by isoproterenol; cited from earlier work
[2] = PK of five RC components in sham operation administration (SDG, normal) rats after oral RC extract, HPLC-QQQ-MS/MS, DAS; format: in vivo, SD rats; conditions: rat
Protocol: (§1) The drug concentration in plasma was calculated using the standard curve, and the mean blood concentration was plotted against the time to obtain the mean blood concentration–time curve (Figure 4).
(§2) The rat model of MI was made with Pit. The rats were divided into a sham operation group (SG), sham operation administration group (SDG), model group (MG), and model administration group (MDG) (n = 6 for each group). The MI model was prepared via an intraperitoneal injection (a single time) of Pit in the MG and MDG, with a dosage of 20 U/kg and a volume of 10 mL/kg. At the same time, the rats in the SG and SDG groups were given the same volume of saline in the same way.
(§3) RC extract (2 g/kg, equivalent to human clinical equivalent dose) was given to rats via oral administration in SDG and MDG, and the same volume of normal saline was orally administered to the SG and MG. Rats were fasted for 12 h before the experiment. Blood was collected from the fundus venous plexus at 0, 5, 10, 15, 30, 45 min, 1, 2, 4, 6, 8, 12, and 24 h after in gavage, placed in a centrifuge tube impregnated with heparin sodium, centrifuged at 3500 rpm for 15 min, and then the plasma was collected and divided into two parts. One part was used for biochemical index determination and the other part was used to determine the content of pharmaceutical ingredients in vivo. After the experiment, the rats were sacrificed, and the hearts were placed in paraformaldehyde for histopathological analysis.
(§4) The plasma sample of 100 μL was accurately absorbed, 50 μL internal standard solution (Nimodipine, 500 ng/mL) was added, then 300 μL acetonitrile precipitated protein was added, vortex for 10 min, placed under ultrasound for 3 min, centrifuged at 13,000 rpm for 10 min, and then the supernatant was transferred to another centrifuge tube. It was then concentrated until dry with a rotary evaporator. The residue was redissolved with 100 μL 50% acetonitrile, swirled for 1 min, placed under ultrasonic for 3 min, centrifuged at 13,000 rpm for 10 min, and the supernatant was taken for analysis.
(§5) A validated HPLC-QQQ-MS/MS method was used for the determination of drug-derived components in plasma samples at different time points. The accompanying standard curve was substituted to calculate the content of the compounds to be measured, and then the PK parameters were calculated using DAS software (version 3.2.8), and the blood concentration–time curve was plotted using GraphPad Prism (version 8.0.2). PK behavior was compared between the sham operation and model group, and PK models were established, respectively.

SOD = assay: PK-PD sigmoid-Emax model, PD index SOD in MDG rats; format: in vivo, SD rats; parameters: Ke0: unit not given beside the values
LDH = assay: PK-PD sigmoid-Emax model, PD index LDH in MDG rats
Excerpt: Subsequently, we incorporated the PK and PD data to conduct PK-PD modeling through DAS.
Therefore, PK-PD correlation analysis was used in this study, linking dynamic concentration–time processes and effect–time profile relationships [20, 21, 22]. […] The model adopted in this study is the S-Emax model. In the equation, γ means the shape factor in the formula, affecting the slope and determining the steepness of the curve. Emax can provide the maximum response intensity, and ED50 is for evaluating the safety of the drug, which is understood as the amount of the drug that causes 50% of the maximum response intensity.
Plasma creatine kinase (CK), hydroxybutyrate dehydrogenase (HBDH), lactate dehydrogenase (LDH), and superoxide dismutase (SOD) activity was determined using an automatic biochemical analyzer.
The activity of the CK, HBDH, LDH, and SOD of plasma samples collected at different time points was determined using an automatic biochemical analyzer for PD index evaluation. […] Two compartmental methods were used, employing the drug and statistics, which was supplied by the Chinese Pharmacological Society. Then, the efficacy indicators were fitted in the PK-PD model.

HBDH = assay: PK-PD sigmoid-Emax model, PD index HBDH in MDG rats; format: in vivo, SD rats; parameters: unit not given beside the values
[3] = Protocol: A series concentration mixed reference solution with different concentrations was added to 100 μL plasma, and was treated according to the method under Section 4.6 to obtain the matrix standard curve sample. Samples with concentrations of 400, 100, and 10 ng/mL, respectively, were taken as quality control (QC) samples of high, medium, and low concentrations (HQC, MQC, LQC). The method was validated, including linearity, inter-day/intra-day precision, repeatability, stability, extraction recovery, and matrix effect, according to FDA bioanalytical method validation guidelines.
AST = assay: PK-PD sigmoid-Emax model, PD index AST in MDG rats; format: in vivo, SD rats; parameters: unit not given beside the values
CK = assay: PK-PD sigmoid-Emax model, PD index CK in MDG rats; format: in vivo, SD rats; parameters: Emax: unit not given beside the values
[4] = PK of five RC components in pituitrin-induced myocardial ischemia (MDG) rats after oral RC extract, HPLC-QQQ-MS/MS, DAS; format: in vivo, SD rats; conditions: for AUC(0-inf) / AUC(0-t) / CL/F / Cmax / MRT / MRT inf / Vd/F / half-life / Tmax: rat
Protocol: as §1, §2, §3, §4, §5

[5] = pathological conditions; cited from earlier work

## O=C(O)c1cc(O)c(O)c(O)c1 [Gallic Acid, gallic acid]
[1]
  CLZ/F in modeled rats vs normal rats: significantly decreased
  T1/2 and MRT in modeled rats vs normal rats: prolonged
[2]; SD, in vivo, po, 2 g/kg
  AUC(0-inf): 550 ± 169 ng·h/mL
  AUC(0-t): 475 ± 112 ng·h/mL
  CL/F: 165 mL/min/kg
  Cmax: 103 ± 16.2 ng/mL
  MRT: 4.32 ± 1.26 h
  MRT inf: 8.92 ± 5.98 h
  Tmax: 0.92 ± 0.13 h
  Vd/F: 116 ± 83.1 L/kg
  half-life: 10.2 ± 8.73 h
SOD
  Emax: 73.435
  Ke0: 0.022
LDH
  Emax: 580.413
HBDH
  Emax: 3540.625
  Ke0: 0.439
[3]; rat plasma, 4 °C, 48 h, spiked 10 ng/mL, n = 6
  Stability RE (%): 100.2%
[3]; rat plasma, 4 °C, 48 h, spiked 50 ng/mL, n = 6
  Stability RE (%): 103.3%
[3]; rat plasma, 4 °C, 48 h, spiked 400 ng/mL, n = 6
  Stability RE (%): 99.11%
[3]; rat plasma, three freeze–thaw cycles, spiked 10 ng/mL, n = 6
  Stability RE (%): 98.58%
[3]; rat plasma, three freeze–thaw cycles, spiked 50 ng/mL, n = 6
  Stability RE (%): 105.6%
[3]; rat plasma, three freeze–thaw cycles, spiked 400 ng/mL, n = 6
  Stability RE (%): 90.26%
[3]; rat plasma, −80 °C, 10 days, spiked 10 ng/mL, n = 6
  Stability RE (%): 99.77%
[3]; rat plasma, −80 °C, 10 days, spiked 400 ng/mL, n = 6
  Stability RE (%): 96.65%
[3]; simulated sample storage, handling and analysis (48 h at 4 °C and 10 days in 3 freeze–thaw cycles)
  Stability in plasma samples (in words): stable
AST
  Emax: 1375.057
  Ke0: 2.998
CK
  Emax: 2290.745
  Ke0: 1.909
[4]; SD, in vivo, po, 2 g/kg
  AUC(0-inf): 664 ± 221 ng·h/mL
  AUC(0-t): 531 ± 60.9 ng·h/mL
  CL/F: 136 mL/min/kg
  Cmax: 130 ± 19.9 ng/mL
  MRT: 5.53 ± 0.59 h
  MRT inf: 13.6 ± 10.6 h
  Vd/F: 134 ± 68.9 L/kg
  half-life: 13.8 ± 10.9 h
[4]; SD, in vivo, po, 2 g/kg, Tmax
  Tmax: 0.92 ± 0.13 h
[4]; SD, in vivo, po, 2 g/kg, Tmax (approximate)
  Tmax: ~1 h

## OCCc1ccc(O)cc1 [Tyrosol, tyrosol]
[5]
  Bioavailability under pathological conditions: increased significantly
[2]; SDG rats, oral RC extract 2 g/kg, plasma, mean ± SD, n = 6, read-out: AUC(0−t)
  AUC(0-t): 653 ± 63.2 ng·h/mL
[2]; SDG rats, oral RC extract 2 g/kg, plasma, mean ± SD, n = 6, read-out: AUC(0−∞)
  AUC(0-inf): 729 ± 49.2 ng·h/mL
[2]; SDG rats, oral RC extract 2 g/kg, plasma, mean ± SD, n = 6, read-out: CLz/F (converted)
  CL/F: 115 mL/min/kg
[2]; SDG rats, oral RC extract 2 g/kg, plasma, mean ± SD, n = 6, read-out: Cmax
  Cmax: 132 ± 12.6 ng/mL
[2]; SDG rats, oral RC extract 2 g/kg, plasma, mean ± SD, n = 6, read-out: MRT(0−)
  MRT: 5.59 ± 0.5 h
[2]; SDG rats, oral RC extract 2 g/kg, plasma, mean ± SD, n = 6, read-out: MRT(0−∞)
  MRT inf: 9.86 ± 5.68 h
[2]; SDG rats, oral RC extract 2 g/kg, plasma, mean ± SD, n = 6, read-out: Tmax
  Tmax: 1.17 ± 0.41 h
[2]; SDG rats, oral RC extract 2 g/kg, plasma, mean ± SD, n = 6, read-out: Vz/F
  Vd/F: 97 ± 70.2 L/kg
[2]; SDG rats, oral RC extract 2 g/kg, plasma, mean ± SD, n = 6, read-out: t1/2z (converted)
  half-life: 10 ± 7.64 h
SOD
  Emax: 68.804
  Ke0: 0.043
LDH
  Emax: 483.057
  Ke0: 2.848
HBDH
  Emax: 7149.416
  Ke0: 0.724
[3]; rat, 10 ng/mL
  Stability RE (%): 94.31%
[3]; rat, 50 ng/mL
  Stability RE (%): 96.93%
[3]; rat, 400 ng/mL
  Stability RE (%): 97.75%
[3]; rat, 48 h, 10 ng/mL
  Stability RE (%): 85.44%
[3]; rat, 48 h, 50 ng/mL
  Stability RE (%): 90.28%
[3]; rat, 10 days, 10 ng/mL
  Stability RE (%): 99.52%
[3]; rat, 10 days, 400 ng/mL
  Stability RE (%): 89.70%
AST
  Emax: 1213.835
  Ke0: 2.998
CK
  Emax: 2289.882
  Ke0: 2.998
[4]; MDG vs SDG rats, oral RC extract 2 g/kg
  Change of CLZ/F in MDG compared with SDG: marked decreasing tendency; also recorded: decreased significantly
[4]; SD, plasma, po, 2 g/kg, MDG (myocardial ischemia) rats, oral RC extract 2 g/kg, plasma, mean ± SD, n = 6, read-out: Tmax
  Tmax: 0.96 ± 0.1 h
[4]; SD, plasma, po, 2 g/kg, according to the PK results, group not given, oral RC extract, read-out: Tmax (approximate)
  Tmax: ~1 h
[4]; MDG (myocardial ischemia) rats, oral RC extract 2 g/kg, plasma, mean ± SD, n = 6, read-out: AUC(0−t)
  AUC(0-t): 837 ± 66.8 ng·h/mL
[4]; MDG (myocardial ischemia) rats, oral RC extract 2 g/kg, plasma, mean ± SD, n = 6, read-out: AUC(0−∞)
  AUC(0-inf): 1100 ± 258 ng·h/mL
[4]; MDG (myocardial ischemia) rats, oral RC extract 2 g/kg, plasma, mean ± SD, n = 6, read-out: CLz/F (converted)
  CL/F: 79.2 mL/min/kg
[4]; MDG (myocardial ischemia) rats, oral RC extract 2 g/kg, plasma, mean ± SD, n = 6, read-out: Cmax
  Cmax: 143.4 ± 1.41 ng/mL
[4]; MDG (myocardial ischemia) rats, oral RC extract 2 g/kg, plasma, mean ± SD, n = 6, read-out: MRT(0−)
  MRT: 6.54 ± 0.91 h
[4]; MDG (myocardial ischemia) rats, oral RC extract 2 g/kg, plasma, mean ± SD, n = 6, read-out: MRT(0−∞)
  MRT inf: 16.8 ± 9.96 h
[4]; MDG (myocardial ischemia) rats, oral RC extract 2 g/kg, plasma, mean ± SD, n = 6, read-out: Vz/F
  Vd/F: 94.4 ± 44.4 L/kg
[4]; MDG (myocardial ischemia) rats, oral RC extract 2 g/kg, plasma, mean ± SD, n = 6, read-out: t1/2z (converted)
  half-life: 15.6 ± 0.79 h
